Activity calls are given as the source filed them. No cut-off for these calls is given here.
Assays:
OVCAR-3 [1] = assay: Cytotoxicity against human OVCAR3 cells at 1 nM to 100 uM after 72 hrs by sulforhodamine B assay; type: functional, cell-based
ES2 [2] = assay: Cytotoxicity against human ES2 cells at 1 nM to 100 uM after 72 hrs by sulforhodamine B assay; type: functional, cell-based
SK-OV-3 [3] = assay: Cytotoxicity against human SKOV3 cells at 1 nM to 100 uM after 72 hrs by sulforhodamine B assay; type: functional, cell-based
[4] = Cytotoxicity against human ES2 cells after 72 hrs by sulforhodamine B assay; type: functional, cell-based; details: ES-2, 72 h
SK-OV-3 [5] = assay: Inhibition of CCNB1 protein expression in human SKOV3 cells at 1 uM by Western blot analysis; type: functional, cell-based
OVCAR-3 [6] = assay: Inhibition of FOXM1 protein expression in human OVCAR3 cells at 1 uM by Western blot analysis; type: functional, cell-based
ES2 [7] = assay: Inhibition of CCNB1 mRNA expression in human ES2 cells at 1 uM by RT-PCR analysis; type: functional, cell-based
SK-OV-3 [8] = assay: Inhibition of FOXM1 mRNA expression in human SKOV3 cells at 1 uM by RT-PCR analysis; type: functional, cell-based
SK-OV-3 [9] = assay: Cytotoxicity against human SKOV3 cells after 72 hrs by sulforhodamine B assay; type: functional, cell-based; details: SK-OV-3, 72 h
ES2 [10] = assay: Inhibition of CCNB1 protein expression in human ES2 cells at 1 uM by Western blot analysis; type: functional, cell-based
SK-OV-3 [11] = assay: Inhibition of CDC25B mRNA expression in human SKOV3 cells at 1 uM by RT-PCR analysis; type: functional, cell-based
SK-OV-3 [12] = assay: Inhibition of FOXM1 protein expression in human SKOV3 cells at 1 uM by Western blot analysis; type: functional, cell-based
SK-OV-3 [13] = assay: Inhibition of CCNB1 mRNA expression in human SKOV3 cells at 1 uM by RT-PCR analysis; type: functional, cell-based
ES2 [14] = assay: Inhibition of FOXM1 mRNA expression in human ES2 cells at 1 uM by RT-PCR analysis; type: functional, cell-based
ES2 [15] = assay: Inhibition of CDC25B mRNA expression in human ES2 cells at 1 uM by RT-PCR analysis; type: functional, cell-based
OVCAR-3 [16] = assay: Inhibition of CCNB1 protein expression in human OVCAR3 cells at 1 uM by Western blot analysis; type: functional, cell-based
OVCAR-3 [17] = assay: Cytotoxicity against human OVCAR3 cells after 72 hrs by sulforhodamine B assay; type: functional, cell-based; details: OVCAR-3, 72 h
ES2 [18] = assay: Inhibition of FOXM1 protein expression in human ES2 cells at 1 uM by Western blot analysis; type: functional, cell-based
SK-OV-3 [19] = assay: Cytotoxicity against human SKOV3 cells at 10 uM after 72 hrs by sulforhodamine B assay; type: functional
ES2 [20] = assay: Cytotoxicity against human ES2 cells at 10 uM after 72 hrs by sulforhodamine B assay; type: functional, cell-based
OVCAR-3 [21] = assay: Cytotoxicity against human OVCAR3 cells at 10 uM after 72 hrs by sulforhodamine B assay; type: functional

CC(=O)Nc1ccccc1[N+](=O)[O-]
Activity (OVCAR-3 [1]): inactive
Activity (ES2 [2]): inactive
Activity (SK-OV-3 [3]): inactive

c1ccc(Nc2cc3ccccc3c3ccccc23)cc1
IC50 [4]: 1000 nM
inhibition (SK-OV-3 [5]): Active
inhibition (OVCAR-3 [6]): Active
inhibition (ES2 [7]): Active
inhibition (SK-OV-3 [8]): Active
IC50 (SK-OV-3 [9]): 1000 nM
inhibition (ES2 [10]): Active
inhibition (SK-OV-3 [11]): Active
inhibition (SK-OV-3 [12]): Active
inhibition (SK-OV-3 [13]): Active
inhibition (ES2 [14]): Active
inhibition (ES2 [15]): Active
inhibition (OVCAR-3 [16]): Active
IC50 (OVCAR-3 [17]): 1000 nM
inhibition (ES2 [18]): Active

O=C(Nc1ccc2ncccc2c1)Nc1ccc2ncccc2c1
Activity (SK-OV-3 [19]): 20%
Activity (ES2 [20]): inactive
Activity (OVCAR-3 [21]): 20%
